Patent US20120010173A1 (SEPS PHARMA N.V., priority 2009, published 2012)

Legend:
Format in all cases: physicochemical
[1] = Chemical stability in pharmaceutical solvents (weight % remaining in solution, LCMS)
Method: Table 4 provides the chemical stability data in some pharmaceutical solvents, expressed as the weight percentage (% w/w) of the final fosfluconazole derivative produced and characterized in example 1 that remained in solution after a certain period of time. The test was carried out twice, and the remaining weight % was determined by Liquid Chromatography-Mass Spectrometry (LCMS).
Table 5 provides the chemical stability data in some pharmaceutical solvents at 25° C., expressed as the weight percentage (% w/w) of the final fosfluconazole derivative produced and characterized in example 2 that remained in solution after a certain period of time. The test was carried out twice, and the remaining weight % was determined by Liquid Chromatography-Mass Spectrometry (LCMS).
Table 6 provides the chemical stability data in some pharmaceutical solvents at 25° C., expressed as the weight percentage (% w/w) of the final fosfluconazole derivative produced and characterized in example 3 that remained in solution after a certain period of time. The test was carried out twice, and the remaining weight % was determined by Liquid Chromatography-Mass Spectrometry (LCMS).
Table 7 provides the chemical stability data in some pharmaceutical solvents, expressed as the weight percentage (% w/w) of the final fosfluconazole derivative produced and characterized in example 4 that remained in solution after a certain period of time. The test was carried out twice, and the remaining weight % was determined by Liquid Chromatography-Mass Spectrometry (LCMS).
Table 8 provides the chemical stability data in some pharmaceutical solvents, expressed as the weight percentage (% w/w) of the final fosfluconazole derivative produced and characterized in example 5 that remained in solution after a certain period of time. The test was carried out twice, and the remaining weight % was determined by Liquid Chromatography-Mass Spectrometry (LCMS).
Table 9 provides the chemical stability data in some pharmaceutical solvents, expressed as the weight percentage (% w/w) of the final fosfluconazole derivative produced and characterized in example 6 that remained in solution after a certain period of time. The test was carried out twice, and the remaining weight % was determined by Liquid Chromatography-Mass Spectrometry (LCMS).
Table 10 provides the chemical stability data in some pharmaceutical solvents, expressed as the weight percentage (% w/w) of the final fosfluconazole derivative produced and characterized in example 14 that remained in solution after a certain period of time. The test was carried out twice, and the remaining weight % was determined by Liquid Chromatography-Mass Spectrometry (LCMS).

[2] = Solubility of fosfluconazole derivatives in pharmaceutical solvents (Table 2)
Method: The solubility determination method used was as follows: a suspension of 6 mg of the tested fosfluconazole derivative in 500 μl of the applicable pharmaceutical solvent was rotatively shaken for 24 hours at 800 rpm at 25° C. The saturated fosfluconazole derivative solution was filtered (0.45 μm) and 150 μl of the filtrate was diluted in dimethylsulfoxide (50 μl DMSO). This solution was assayed, each assay being carried out in three-fold, by measurement with Liquid Chromatography-Mass Spectrometry (LCMS, 1 μl and 10 μl injection). Standards were prepared by dissolving the corresponding fosfluconazole derivative in DMSO (1 mg/ml). To determine the solubility, four aliquots (0.5, 1, 2, 4 μl) of the standard solution were injected using the same LCMS conditions as for the above exemplary samples.

[3] = Solubility in pharmaceutical solvents (Table 3); conditions: for calculated fluconazole concentration: value within brackets
Source text: The values within brackets in Table 3 correspond to the calculated fluconazole concentrations taking into account the molecular weights of the relevant fosfluconazole prodrug and fluconazole itself.

Substance: 2-((2-(2,4-difluorophenyl)-1,3-di(1H-1,2,4-triazol-1-yl)propan-2-yloxy)(ethoxy)phosphoryloxy)ethyl (3S,8R,9S,10R,13S,14S,17R)-10,13,17-trimethyl-17-((R)-6-methylheptan-2-yl)-2,3,4,7,8,9,10,11,12,13,14,15,16,17-tetradecahydro-1H-cyclopenta[a]phenanthren-3-yl succinate [Example 6]
- weight percentage that remained in solution ([1]; H2O (pH = 2), 2 hours): 98.4 % w/w
- weight percentage that remained in solution ([1]; H2O (pH = 2), 4 hours): 44.0 % w/w
- weight percentage that remained in solution ([1]; H2O (pH = 2), 1 day): 55.3 % w/w
- weight percentage that remained in solution ([1]; H2O (pH = 2), 2 days): 46.4 % w/w
- weight percentage that remained in solution ([1]; H2O (pH = 2), 7 days): 0.0 % w/w
- weight percentage that remained in solution ([1]; H2O (pH = 2), 14 days): 0.0 % w/w
- weight percentage that remained in solution ([1]; H2O (pH = 7), 2 hours): 100.0 % w/w
- weight percentage that remained in solution ([1]; H2O (pH = 7), 4 hours): 100.0 % w/w
- weight percentage that remained in solution ([1]; H2O (pH = 7), 1 day): 100.0 % w/w
- weight percentage that remained in solution ([1]; H2O (pH = 7), 2 days): 100.0 % w/w
- weight percentage that remained in solution ([1]; H2O (pH = 7), 7 days): 100.0 % w/w
- weight percentage that remained in solution ([1]; H2O (pH = 7), 14 days): 100.0 % w/w
- weight percentage that remained in solution ([1]; H2O (pH = 10), 2 hours): 100.0 % w/w
- weight percentage that remained in solution ([1]; H2O (pH = 10), 4 hours): 100.0 % w/w
- weight percentage that remained in solution ([1]; H2O (pH = 10), 1 day): 100.0 % w/w
- weight percentage that remained in solution ([1]; H2O (pH = 10), 2 days): 100.0 % w/w
- weight percentage that remained in solution ([1]; H2O (pH = 10), 7 days): 100.0 % w/w
- weight percentage that remained in solution ([1]; H2O (pH = 10), 14 days): 100.0 % w/w
- weight percentage that remained in solution ([1]; H2O/Kleptose HPB (60/40), 2 hours): 86.7 % w/w
- weight percentage that remained in solution ([1]; H2O/Kleptose HPB (60/40), 4 hours): 86.7 % w/w
- weight percentage that remained in solution ([1]; H2O/Kleptose HPB (60/40), 1 day): 86.7 % w/w
- weight percentage that remained in solution ([1]; H2O/Kleptose HPB (60/40), 2 days): 86.7 % w/w
- weight percentage that remained in solution ([1]; H2O/Kleptose HPB (60/40), 7 days): 86.7 % w/w
- weight percentage that remained in solution ([1]; H2O/Kleptose HPB (60/40), 14 days): 86.7 % w/w
- weight percentage that remained in solution ([1]; PEG 400, 2 hours): 100.0 % w/w
- weight percentage that remained in solution ([1]; PEG 400, 4 hours): 100.0 % w/w
- weight percentage that remained in solution ([1]; PEG 400, 1 day): 100.0 % w/w
- weight percentage that remained in solution ([1]; PEG 400, 2 days): 100.0 % w/w
- weight percentage that remained in solution ([1]; PEG 400, 7 days): 100.0 % w/w
- weight percentage that remained in solution ([1]; PEG 400, 14 days): 100.0 % w/w
- solubility ([2]; H2O (pH = 2), 25° C.): <1 µg/mL
- solubility ([2]; H2O (pH = 7), 25° C.): <1 µg/mL
- solubility ([2]; H2O (pH = 10), 25° C.): <1 µg/mL
- solubility ([2]; H2O/Cremophor RH 40 (80/20), 25° C.): <1 µg/mL
- solubility ([2]; H2O/Kleptose HPB (60/40), 25° C.): 600 µg/mL
- solubility ([2]; H2O/Vitamin E TPGS (90/10), 25° C.): 6200 µg/mL
- solubility ([2]; H2O/polysorbate 80 (80/20), 25° C.): >10000 µg/mL
- solubility ([2]; Miglyol 812, 25° C.): >10000 µg/mL
- solubility ([2]; PEG 400, 25° C.): >10000 µg/mL
- solubility ([3]; Benzylalcohol): ≥ 226.7
- calculated fluconazole concentration ([3]; Benzylalcohol): (74.8)
- solubility ([3]; Benzylbenzoate): ≥ 226.7
- calculated fluconazole concentration ([3]; Benzylbenzoate): (74.8)
- solubility ([3]; Ethylbenzoate): ≥ 226.7
- calculated fluconazole concentration ([3]; Ethylbenzoate): (74.8)
- solubility ([3]; Miglyol 812): 200.0
- calculated fluconazole concentration ([3]; Miglyol 812): (66.0)
- solubility ([3]; N-methylpyrrolidone): ≥ 226.7
- calculated fluconazole concentration ([3]; N-methylpyrrolidone): (74.8)
- solubility ([3]; Sesame oil (LCT)): 23.3
- calculated fluconazole concentration ([3]; Sesame oil (LCT)): (7.7)
